In ChEMBL document CHEMBL1201862, “PubChem BioAssay data set” (2004):
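The compound was tested at five concentrations on cells cultured in 96-well plates, with a 48-hour exposure period. Abbreviation: GI50, concentration required for 50% inhibition of growth.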 The source made the active and inactive calls. Rule as the data show it: active = GI50 up to about 1.1 µM and inactive = higher.

How the values were obtained:
Experiment in all cases: growth of human tumour cells (NCI), 48 h
[1] = tested on: HOP-18
[2] = tested on: LXFL 529
[3] = tested on: DLD-1
[4] = tested on: DMS-273
[5] = tested on: RXF 631
[6] = tested on: XF498
[7] = tested on: KM-20L2
[8] = tested on: M19-MEL
[9] = tested on: DMS-114

Row | Structure (SMILES) | GI50 [1] | GI50 [2] | GI50 [3] | GI50 [4] | GI50 [5] | GI50 [6] | GI50 [7] | GI50 [8] | GI50 [9]
1 | COC(=O)CC1CC2(C(=O)OC)c3[nH]c4ccccc4c3CCN2C1=O (configuration not stated) | > 100 µM (inactive) | > 100 µM (inactive) | > 100 µM (inactive) | > 100 µM (inactive) | 17.5 µM (inactive) | > 100 µM (inactive) | > 100 µM (inactive) | > 100 µM (inactive) | > 100 µM (inactive)
2 | CC(C)(C)CC(C)(C)c1cc2c(O)c(c1)Cc1cc(C(C)(C)CC(C)(C)C)cc(c1O)Cc1cc(C(C)(C)CC(C)(C)C)cc(c1O)Cc1cc(C(C)(C)CC(C)(C)C)cc(c1O)C2 |  | > 100 µM (inactive) | > 100 µM (inactive) | > 100 µM (inactive) | > 100 µM (inactive) | > 100 µM (inactive) | > 100 µM (inactive) | > 100 µM (inactive) | > 100 µM (inactive)
3 | O=C1OC(=O)c2c1nc1ccccc1c2-c1ccccc1 | > 100 µM (inactive) | > 100 µM (inactive) | > 100 µM (inactive) | > 100 µM (inactive) | > 100 µM (inactive) |  | > 100 µM (inactive) | > 100 µM (inactive) | > 100 µM (inactive)
4 | CC(NC(=O)c1ccccc1)C(=O)N(Cc1ccccc1)Cc1ccccc1 (configuration not stated) |  | 18.4 µM (inactive) | 31.4 µM (inactive) | 21.3 µM (inactive) |  |  | 26.2 µM (inactive) | 24.4 µM (inactive) | 19 µM (inactive)
5 | O=C(O)C1=C(O)C(C(=O)O)C23CCCCCCCCCCC12C(C(=O)O)C(O)=C3C(=O)O (configuration not stated) | > 100 µM (inactive) | > 100 µM (inactive) | > 100 µM (inactive) | > 100 µM (inactive) |  | > 100 µM (inactive) |  | > 100 µM (inactive) | > 100 µM (inactive)
6 | C#CCN(N=O)C(=O)NCCCCC(NC(C)=O)C(=O)NCc1ccccc1 (configuration not stated) | > 100 µM (inactive) | > 100 µM (inactive) | > 100 µM (inactive) |  |  | 2.68 µM (inactive) | > 100 µM (inactive) | > 100 µM (inactive) | > 100 µM (inactive)
7 | CC1(S)CC2C(CC1Sc1ccccc1)C2(C)C (configuration not stated) | > 100 µM (inactive) | > 100 µM (inactive) | > 100 µM (inactive) | > 100 µM (inactive) |  | > 100 µM (inactive) |  | > 100 µM (inactive) | > 100 µM (inactive)
8 | Cc1cc(Br)cc(C)c1NC(=O)C(=O)CC(=O)c1sc(-n2nc(-c3ccccc3)cc2-c2ccccc2)nc1C | > 100 µM (inactive) | > 100 µM (inactive) | > 100 µM (inactive) | > 100 µM (inactive) | > 100 µM (inactive) |  | > 100 µM (inactive) | > 100 µM (inactive) | > 100 µM (inactive)
9 | CCn1c2ccccc2c2ccc3c(c21)C(=O)c1ccccc1C3=O | > 100 µM (inactive) | > 100 µM (inactive) | > 100 µM (inactive) | > 100 µM (inactive) |  | > 100 µM (inactive) | > 100 µM (inactive) | 24.2 µM (inactive) | > 100 µM (inactive)
10 | N#CC(NNC(=O)c1ccccc1O)c1c(O)ccc2ccccc12 (configuration not stated) | 2.04 µM (inactive) | 3.76 µM (inactive) | 2.06 µM (inactive) | 2.52 µM (inactive) |  |  | 17.9 µM (inactive) | 1.78 µM (inactive) | 1.87 µM (inactive)
11 | Cc1cccc(NC(=O)C(=O)C(C2OC(=O)c3ccccc32)[N+](=O)[O-])c1C (configuration not stated) | 10.5 µM (inactive) | 8.04 µM (inactive) | 6.43 µM (inactive) | 2.59 µM (inactive) | 5.98 µM (inactive) | 6.81 µM (inactive) | 18.4 µM (inactive) | 1.87 µM (inactive) | 2.86 µM (inactive)
12 | CCc1cccc(C)c1NC(=S)NC(=O)c1ccccc1C(=O)NC(=S)Nc1c(C)cccc1CC | 50.7 µM (inactive) | 85.5 µM (inactive) | > 100 µM (inactive) | 95.3 µM (inactive) |  |  | 91.8 µM (inactive) | 39.2 µM (inactive) | 29.9 µM (inactive)
13 | CC(C)c1cccc(C(C)C)c1NC(=O)C(=O)C(C(=O)c1ccc2ccccc2c1)C1OC(=O)c2ccccc21 (configuration not stated) |  | > 100 µM (inactive) | > 100 µM (inactive) |  |  |  |  | 26.7 µM (inactive) | > 100 µM (inactive)
14 | CC(=O)Nc1ccc(/C=c2\sc3nnc(/C=C/c4ccccc4)n3c2=O)cc1 | 17.1 µM (inactive) | > 50 µM (inactive) | > 50 µM (inactive) | > 50 µM (inactive) | > 50 µM (inactive) | > 50 µM (inactive) | > 50 µM (inactive) | > 50 µM (inactive) | > 50 µM (inactive)
15 | Cc1cccc(C(C)(C)C)c1NC(=O)CCl | > 100 µM (inactive) | > 100 µM (inactive) | > 100 µM (inactive) | > 100 µM (inactive) | > 100 µM (inactive) | > 100 µM (inactive) | > 100 µM (inactive) | > 100 µM (inactive) | 
16 | CC1(C)C(=O)CCC(=O)C(C)(C)C2=CC=C(O2)C(C)(C)C(=O)CCC(=O)C(C)(C)C2=CC=C1O2 | > 100 µM (inactive) | > 100 µM (inactive) |  | > 100 µM (inactive) |  |  | > 100 µM (inactive) | > 100 µM (inactive) | 
17 | Cc1ccc(/C=C/C(=O)c2ccc(Cl)c(Cl)c2)cc1 | 63.1 µM (inactive) | > 100 µM (inactive) | > 100 µM (inactive) | > 100 µM (inactive) | > 100 µM (inactive) | > 100 µM (inactive) | > 100 µM (inactive) |  | 
18 | C/C(=N\NC(=S)N1CCC(C2CCN(C(=S)N/N=C(\C)c3ccccn3)CC2)CC1)c1ccccn1 | > 100 µM (inactive) | 55.3 µM (inactive) | > 100 µM (inactive) | 64.1 µM (inactive) | > 100 µM (inactive) | 35 µM (inactive) | > 100 µM (inactive) | > 100 µM (inactive) | 
19 | CSC(=S)N(C)NC(=O)c1cccc(C(=O)NN(C)C(=S)SC)n1 | 78.5 µM (inactive) | 10.4 µM (inactive) | 27.2 µM (inactive) | 14.1 µM (inactive) |  |  | 4.07 µM (inactive) | 31 µM (inactive) | 1.36 µM (inactive)
20 | S=C1NCCN1 |  | > 100 µM (inactive) | > 100 µM (inactive) | > 100 µM (inactive) |  | > 100 µM (inactive) | > 100 µM (inactive) | > 100 µM (inactive) | > 100 µM (inactive)
21 | CSc1cc(C(C)(C)C)ccc1C(O)c1ccc(C(C)(C)C)cc1SC | 15.5 µM (inactive) | 13.7 µM (inactive) | 8.36 µM (inactive) | 10.9 µM (inactive) |  | 10.8 µM (inactive) | 11 µM (inactive) | 10.2 µM (inactive) | 7.69 µM (inactive)
22 | COc1ccc(C(=O)C(c2ccc(OC)cc2)C2(O)C(=O)Nc3ccccc32)cc1 (configuration not stated) |  | > 100 µM (inactive) | > 100 µM (inactive) | > 100 µM (inactive) | > 100 µM (inactive) | > 100 µM (inactive) | > 100 µM (inactive) | > 100 µM (inactive) | 
23 | COC(=O)C1=C(C)N(NC(=O)c2ccccc2)C(C)(O)C12CCOC2=O (configuration not stated) | > 100 µM (inactive) | > 100 µM (inactive) | > 100 µM (inactive) | > 100 µM (inactive) |  | > 100 µM (inactive) | > 100 µM (inactive) |  | > 100 µM (inactive)
24 | NC(=O)NCc1c(C(N)=O)ncn1Cc1ccccc1 | > 100 µM (inactive) | > 100 µM (inactive) | > 100 µM (inactive) | > 100 µM (inactive) |  | > 100 µM (inactive) | > 100 µM (inactive) | > 100 µM (inactive) | > 100 µM (inactive)
25 | Cn1c(=O)c(C(c2ccccc2)c2c(O)c3ccccc3n(C)c2=O)c(O)c2ccccc21 | > 100 µM (inactive) | > 100 µM (inactive) | 88.7 µM (inactive) | > 100 µM (inactive) | > 100 µM (inactive) | > 100 µM (inactive) | > 100 µM (inactive) | > 100 µM (inactive) | > 100 µM (inactive)
26 | CC(C)CCCC(C)[C@H]1CCC2[C@H]3C(CC[C@@]21C)[C@@]1(C)CCC=C[C@]12C[C@@H]2[C@@H]3O (some centres not stated) | > 100 µM (inactive) | > 100 µM (inactive) | > 100 µM (inactive) | > 100 µM (inactive) | > 100 µM (inactive) |  | > 100 µM (inactive) |  | > 100 µM (inactive)
27 | CC(C)[Si](OCC1CC(C#N)OC(C)(C)O1)(C(C)C)C(C)C (configuration not stated) | 30.5 µM (inactive) |  | 44.4 µM (inactive) | 19.2 µM (inactive) |  | 21 µM (inactive) | 21.9 µM (inactive) | 25.2 µM (inactive) | > 10 µM (inactive)
28 | Cc1cccc2cc3cccc(C(=O)NCCN(C)C)c3nc12 | 0.399 µM (active) | 0.275 µM (active) | 0.119 µM (active) | 0.0374 µM (active) | 0.0538 µM (active) |  | 0.242 µM (active) | 0.157 µM (active) | 0.115 µM (active)
29 | CN(C)CCNc1nc(-c2cccs2)cc(-c2cccs2)n1 | < 0.01 µM (active) | 14.8 µM (inactive) | 22.5 µM (inactive) | 10.8 µM (inactive) |  | 3.39 µM (inactive) |  |  | 8.73 µM (inactive)
30 | COc1ccc(NCc2cc(OC)cc(OC)c2)cc1 | > 42.7 µM (inactive) | 26.2 µM (inactive) | 32.6 µM (inactive) | 6.15 µM (inactive) | 10.5 µM (inactive) | 4.3 µM (inactive) | 10.7 µM (inactive) | 15.1 µM (inactive) | 6.53 µM (inactive)
